ChEMBL document CHEMBL1955794, “β-Carboline alkaloids from the leaves of Trigonostemon lii Y.T. Chang” (Bioorg Med Chem Lett, 2012)

Columns and labels:
Format in all cases: functional, cell-based
HL-60 = test: Cytotoxicity against human HL60 cells after 48 hrs by MTT assay; conditions: HL-60, 48 h
SW480 = test: Cytotoxicity against human SW480 cells after 48 hrs by MTT assay; conditions: SW480, 48 h
A549 = test: Cytotoxicity against human A549 cells after 48 hrs by MTT assay; conditions: A549, 48 h
SMMC-7721 = test: Cytotoxicity against human SMMC7721 cells after 48 hrs by MTT assay; conditions: SMMC-7721, 48 h
MCF7 = test: Cytotoxicity against human MCF7 cells after 48 hrs by MTT assay; conditions: MCF7, 48 h

| SMILES | IC50 (HL-60) [µM] | IC50 (SW480) [µM] | IC50 (A549) [µM] | IC50 (SMMC-7721) [µM] | IC50 (MCF7) [µM] |
| --- | --- | --- | --- | --- | --- |
| COc1ccc2c(c1)[nH]c1c(C(C)=O)nccc12 [ARENARINE C] | > 40 | > 40 | > 40 | > 40 | > 40 |
| COc1ccc2c(c1)[nH]c1c(C(=O)c3c(O)[nH]c4ccccc34)nccc12 [TRIGONOSTEMINE C] | > 40 | 17.2 | 18.5 | 16 | 16.1 |
| COc1ccc2c(C3=NCCc4c3[nH]c3ccccc43)ccnc2c1 [TRIGONOSTEMONINE E] | > 40 | > 40 | > 40 | > 40 | > 40 |
| COc1ccc2c(c1)[nH]c1c(-c3ccnc4ccccc34)nc(O)cc12 [TRIGONOSTEMINE E] | 18.8 | 39.1 | 24.3 | 23.5 | 14.4 |
| COc1ccc2c(C(=O)c3nccc4c3[nH]c3cc(OC)ccc34)c[nH]c2c1 [TRIGONOSTEMINE B] | > 40 | 3.55 | 8.67 | 4.78 | 2.98 |
| COc1ccc2c(-c3nccc4c3[nH]c3ccccc34)ccnc2c1 [TRIGONOSTEMONINE D] | > 40 | > 40 | > 40 | > 40 | > 40 |
| COc1ccc2c3c([nH]c2c1)-c1nc2ccccc2c(=O)n1CC3 | > 40 | > 40 | > 40 | > 40 | > 40 |
| COc1ccc2c(=O)n3c(nc2c1)-c1[nH]c2ccccc2c1CC3 | > 40 | > 40 | > 40 | > 40 | > 40 |
| COc1ccc2c(-c3nc(O)cc4c3[nH]c3ccccc34)ccnc2c1 [TRIGONOSTEMINE F] | > 40 | > 40 | > 40 | > 40 | > 40 |
| COc1ccc2c(c1)[nH]c1c(-c3ccnc4ccccc34)nccc12 [TRIGONOSTEMONINE C] | 13.4 | > 40 | 23.1 | 15.5 | > 40 |
| COc1ccc2c(c1)[nH]c1c(C(=O)c3c[nH]c4ccccc34)nccc12 [TRIGONOSTEMINE A] | 13.4 | 4.86 | 23.9 | 22.4 | 5.3 |
| COc1ccc2c(C(=O)c3nccc4c3[nH]c3ccccc34)c(O)[nH]c2c1 [TRIGONOSTEMINE D] | > 40 | > 40 | > 40 | > 40 | 13.8 |
| O=C1NCCc2c1[nH]c1ccccc21 | > 40 | > 40 | > 40 | > 40 | > 40 |
| COC(=O)c1nccc2c1[nH]c1cc(OC)ccc12 [HARMIC ACID METHYL ESTER] | > 40 | > 40 | > 40 | > 40 | > 40 |
